Measurements: publication PMC5775429, “LY2087101 and dFBr share transmembrane binding sites in the (α4)3(β2)2 Nicotinic Acetylcholine Receptor” (Scientific Reports, 2018)

Legend:
(α4)2(β2)3 nAChR = biological target: T1, (α4)2(β2)3 nAChR (Homo sapiens, UniProt P17787+P43681); experiment: Two-electrode voltage-clamp of ACh-induced currents in Xenopus oocytes; assay type: cell-based
T1 construct: expressed in transfected cells; host or cells: Xenopus laevis oocytes injected with cRNA
Protocol: (§1) To begin to characterize LY2087101 interaction with the heteropentameric α4β2 nAChRs, we examined the selectivity of LY2087101 for the two α4β2 nAChR isoforms; high-agonist sensitivity (α4)2(β2)3 and low-agonist sensitivity (α4)3(β2)2 nAChRs. Xenopus oocytes were injected with α4 and β2 subunits RNAs at ratios 8:1 and 1:8 to favor expression of (α4)3(β2)2 and (α4)2(β2)3 nAChRs, respectively.
(§2) Ovarian lobules were surgically harvested from oocytes-positive female Xenopus laevis (NASCO, Fort Atkinson, WI) according to an animal use protocol approved by the Texas A&M Health Sciences Center Institutional Animals Care and Use Committee. The Texas A&M Health Sciences Center Research Facility is registered as an animal research facility with the United States Department of Agriculture and is fully accredited by the American Association for Accreditation of Laboratory Animal Care (AAALAC). For oocytes defolliculation, ovarian lobes were treated with 3 mg/ml collagenase type 2 (Worthington Biomedical, Lakewood, NJ) in Ca + 2-free buffer (85 mM NaCl, 2.5 mM KCl, 1 mM MgCl2, 5 mM HEPES, pH 7.6). Collagenase treatment was allowed to proceed for 3 hours at room temperature with gentle shaking then oocytes were washed several times with buffer to remove collagenase then with ND96-gentamicine buffer. Healthy Stage V and VI oocytes were visually selected and maintained at 18 °C in modified ND96-gentamicine buffer (96 mM NaCl, 2 mM KCl, 1.8 mM CaCl2, 1 mM MgCl2, 5 mM HEPES, 50 µg/ml gentamicin, pH 7.6). Oocytes were injected with 50–100 ng of the desired nAChR subunits cRNA mix at ratios of 8α:1β or 1α:8β to express nAChRs with subunit stoichiometries of 3α:2β (low agonist sensitivity) or 2α:3β (high agonist sensitivity), respectively.
(§3) Oocytes were continuously perfused with recording buffer (100 mM NaCl, 2 mM KCl, 1 mM CaCl2, 0.8 mM MgCl2, 1 mM EGTA, 10 mM Hepes, pH 7.5) except during periods of drug applications.

(α4)3(β2)2 nAChR = biological target: T2, (α4)3(β2)2 nAChR (Homo sapiens, UniProt P17787+P43681); experiment: as above; assay type: cell-based
T2 construct: expressed in transfected cells; host or cells: Xenopus laevis oocytes injected with cRNA
T2 sequence (P43681 29-627 limits assumed): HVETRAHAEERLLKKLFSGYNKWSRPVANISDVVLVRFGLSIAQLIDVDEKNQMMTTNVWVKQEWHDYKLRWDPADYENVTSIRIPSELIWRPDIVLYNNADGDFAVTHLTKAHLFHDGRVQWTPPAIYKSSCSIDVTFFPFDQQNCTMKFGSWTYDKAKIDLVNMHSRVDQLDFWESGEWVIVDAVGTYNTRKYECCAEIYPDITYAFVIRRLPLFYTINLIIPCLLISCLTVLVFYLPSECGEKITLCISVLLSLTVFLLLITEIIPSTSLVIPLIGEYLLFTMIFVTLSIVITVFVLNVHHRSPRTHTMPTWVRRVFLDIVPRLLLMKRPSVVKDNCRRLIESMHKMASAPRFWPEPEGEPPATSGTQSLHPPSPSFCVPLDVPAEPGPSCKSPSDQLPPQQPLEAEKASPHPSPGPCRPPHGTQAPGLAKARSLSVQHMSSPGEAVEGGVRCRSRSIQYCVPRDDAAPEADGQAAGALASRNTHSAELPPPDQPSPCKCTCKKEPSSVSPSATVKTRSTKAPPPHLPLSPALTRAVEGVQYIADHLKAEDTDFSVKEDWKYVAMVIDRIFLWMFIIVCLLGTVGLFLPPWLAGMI
T2 sequence (P17787 26-502): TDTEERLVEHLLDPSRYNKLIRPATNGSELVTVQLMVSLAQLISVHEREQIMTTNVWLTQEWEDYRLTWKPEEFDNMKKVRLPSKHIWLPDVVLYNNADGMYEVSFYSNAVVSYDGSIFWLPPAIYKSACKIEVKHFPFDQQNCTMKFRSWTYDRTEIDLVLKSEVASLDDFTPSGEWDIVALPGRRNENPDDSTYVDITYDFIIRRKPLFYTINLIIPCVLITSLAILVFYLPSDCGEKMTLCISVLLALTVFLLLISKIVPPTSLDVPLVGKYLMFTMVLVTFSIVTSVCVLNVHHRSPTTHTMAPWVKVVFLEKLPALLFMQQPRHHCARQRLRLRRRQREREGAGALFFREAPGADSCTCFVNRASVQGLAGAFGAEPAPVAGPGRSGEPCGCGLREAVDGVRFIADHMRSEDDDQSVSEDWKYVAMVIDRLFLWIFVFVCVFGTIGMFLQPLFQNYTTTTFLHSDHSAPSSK
Protocol: as §1, §2, §3

[1] = ACh alone (control), normalized to 1 mM ACh
[2] = in the presence of 1 µM LY2087101

T1 sequence (P43681 29-627 limits assumed): as the sequence (P43681 29-627 limits assumed) above
T1 sequence (P17787 26-502): as the sequence (P17787 26-502) above

Compound: CC(=O)OCC[N+](C)(C)C [ACh, Acetylcholine chloride]
- ACh h (Hill coefficient) ((α4)2(β2)3 nAChR; ACh alone (control)): 1.2 ± 0.03
- ACh Imax ((α4)2(β2)3 nAChR; [1]): 100 ± 1%
- ACh h (Hill coefficient) ((α4)2(β2)3 nAChR; [2]): 1.0 ± 0.04
- ACh h (Hill coefficient) ((α4)3(β2)2 nAChR; ACh alone (control)): 0.66 ± 0.06
- ACh Imax ((α4)3(β2)2 nAChR; [1]): 117 ± 6%
- ACh h (Hill coefficient) ((α4)3(β2)2 nAChR; [2]): 0.7 ± 0.1
